{
  "source": "paper PMC10396310",
  "about": "“A succinate/SUCNR1-brush cell defense program in the tracheal epithelium” (Science Advances, 2023)",
  "target": "T1, succinate receptor 1 (SUCNR1; GPR91) (Mus musculus, UniProt Q99MT6)",
  "T1 construct": "native receptor in tracheal TRPM5+ brush cells (ex vivo whole mount)",
  "T1 sequence (Q99MT6 1-317)": "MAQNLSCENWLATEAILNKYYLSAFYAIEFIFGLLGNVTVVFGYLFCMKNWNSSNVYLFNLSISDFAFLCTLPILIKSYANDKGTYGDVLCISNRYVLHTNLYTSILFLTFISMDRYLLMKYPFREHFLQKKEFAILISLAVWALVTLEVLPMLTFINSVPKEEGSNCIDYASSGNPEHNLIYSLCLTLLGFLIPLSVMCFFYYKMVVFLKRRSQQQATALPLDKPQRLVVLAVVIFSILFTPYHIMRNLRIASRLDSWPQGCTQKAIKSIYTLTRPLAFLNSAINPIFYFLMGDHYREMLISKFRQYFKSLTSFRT",
  "assay": "Ca2+ imaging (GCaMP6f) concentration-response in brush cells; Ca2+ wave lost in Sucnr1-/- mice",
  "data": [
    {"smiles": "O=C(O)CCC(=O)O", "note": "[succinate]", "values": [
      {"measurement": "EC50", "result": "335 ± 5", "unit": "µM"}
    ]}
  ]
}
